{
  "source": "paper PMC8706998",
  "about": "“Lipid Nanocarriers-Loaded Nanocomposite as a Suitable Platform to Release Antibacterial and Antioxidant Agents for Immediate Dental Implant Placement Restorative Treatment” (Pharmaceutics, 2021)",
  "key": {"[1]": {"assay": "QRC release study, modified transwell support with 1-octanol acceptor", "format": "physicochemical", "conditions": "QRC release from BioQ-CPX, data up to 30 h", "experimental": "QRC release studies were carried out using a modified transwell permeable support (0.45 µm) filled with 5 mg of the BioQ-CPX powder and soaked with 0.2 mL of citrate buffer pH 5.5. The entire system was dipped inside a beaker filled with 8 mL of 1-octanol as a suitable acceptor fluid. […] The experiments were carried out at 37 ± 0.5 °C under constant stirring and protected by light exposure while, immediately after sampling, opportune volumes of fresh acceptor fluid were added to maintain the sink conditions. Data are reported as means ± SE (n = 6). Drug release profiles were elaborated using OriginPro 8.5 software and fitted with semi-empirical model equations. Fittings were validated by using R^2 value where a p-value of less than 0.05 was considered statistically significant."}, "[2]": {"assay": "QRC and CPX solubility studies in aqueous media", "format": "physicochemical", "conditions": "for solubility at 120 min: 37 °C, pH 5.5, aqueous with cosolvent or surfactant or cyclodextrin, thermodynamic from solid, 37 ± 0.5 °C", "experimental": "QRC, in excess, was added to each medium (1 mL) until precipitation occurred. […] The solubility tests were performed in triplicate. Results are reported as means ± SE."}, "[3]": {"set-up": "method as in doi:10.1016/j.jfoodeng.2010.04.001", "conditions": "Water pH 7; cited from earlier work"}, "[4]": {"assay": "QRC stability assay in aqueous environments (UV-Vis absorbance at 360 nm)", "format": "physicochemical", "conditions": "for decrease of absorbance ratio at 360 nm: QRC 0.01 mg/mL, room temperature, after 6 h", "experimental": "QRC degradation rate was investigated in: (i) PBS pH 7.4 containing 10% v/v of DMSO (solvent A) and (ii) citrate buffer pH 5.5 solution amended with either 10% v/v of DMSO (solvent B) or 10% v/v of DMSO and 0.002% w/v of ACys (solvent C). The prepared QRC aqueous solutions (0.01 mg/mL) were kept at room temperature for 6 h in quartz cuvette located in the UV–Vis spectrophotometer (Shimadzu 1700 instrument, Kyoto, Japan). At scheduled time intervals (10 min), QRC spectra were recorded (from 200 to 700 nm) to highlight any changes in terms of sharp and absorption peaks. Results were reported as absorbance variation at lambda max (360 nm) over time according to the following equation: Abs variation %=Abstn/Abst0×100 where Abst0 and Abstn are the QRC absorbance recorded initially and at each time point, respectively. The stability assays were performed in triplicate. Results are reported as means ± SE."}, "[5]": {"conditions": "cited from earlier work"}, "[6]": {"assay": "Screening of the liquid lipids: visual evaluation of QRC dissolution (5% w/w)", "format": "physicochemical", "conditions": "QRC 5% w/w (5:95)", "experimental": "Labrasol®, Capryol PGMC®, Plurol®, Maisine®, Labrafil® M 1944 CS, and PEG-18 G/C were selected as liquid lipids to evaluate their ability to completely dissolve the desired amount of QRC (5% w/w). Briefly, 50 mg of QRC was added to 950 mg of each lipid. Each mixture was then ultrasonicated (Emerson Branson 1200, Branson, Brookfield, USA) for 15 min, allowing QRC powder disaggregation. Then, mixtures were maintained under magnetic stirring (200 rpm) and kept in a silicone thermostatic bath heated up to 60 °C (Heidolph MR3001K, Schwabach, Germany) for 30 min. After cooling at room temperature, samples were evaluated in terms of appearance and clearness."}, "[7]": {"assay": "QRC stability after UV irradiation by EPR spectroscopy", "format": "physicochemical", "experimental": "EPR measurements were carried out on 25 mg of QRC and BioQ-CPX at room temperature using a Bruker ELEXSYS E-500 spectrometer (Bruker, Billerica, MA, USA) operated at 9.8 GHz (X-band), operating at 6 mW microwave power and 0.15 mT modulation amplitude. To evaluate the effects of light exposure in the samples, UV-A/UV-B irradiator alternatively equipped with lamps of 25 W and 50 W (Light-Emitting Diode Philips, Amsterdam, The Netherlands) was used. Preliminarily, the paramagnetic center of QRC (pure drug) before and after 20 min of UV irradiation (50 W) was characterized. Afterwards, to evaluate the BioQ-CPX capability in preserving QRC from light exposure, aliquots of QRC and BioQ-CPX were irradiated by 25 W or 50 W lamps over time. […] UV irradiation was accomplished up to 60 min for all samples and EPR analysis was carried out every 5 min. Signals were normalized to the QRC mass contained in each sample. Data are reported as mean ± SE (n = 3)."}, "DPPH antioxidant assay": {"assay": "DPPH antioxidant assay", "format": "biochemical", "conditions": "0.08-0.01 mg/mL", "experimental": "To evaluate the antioxidant activity of BioQ-CPX, the 2,2-diphenyl-1-picrylhydrazyl (DPPH) assay was performed. […] A measure of 0.5 mL of nanocomposite solution was transferred in polystyrene cuvette, added to 2.5 mL of DPPH ethanol solution (0.0295 mg/mL), and preserved by light exposure using foil. At determined time intervals (0, 0.25, 1, and 2 h), the DPPH concentration was measured spectrophotometrically at room temperature by observing the spectral range 400-800 nm and selecting λmax = 515 nm for quantification. The DPPH calibration curve was constructed analyzing DPPH ethanol solutions in the concentration range of 0.039-0.0156 mg/mL (λmax = 515 nm, regression equation: […] Results are expressed as means ± SE."}},
  "note": "Several values for one entry are separate records, joined by “and”; a condition that tells them apart may be missing. Identical values can stand only once.",
  "data": [
    {"compound": "O=c1c(O)c(-c2ccc(O)c(O)c2)oc2cc(O)cc(O)c12", "note": "[QRC, quercetin]", "values": [
      {"measurement": "Korsmeyer-Peppas n", "setting": "[1]", "value": 0.7915},
      {"measurement": "Korsmeyer-Peppas with Tlag n", "setting": "[1]", "value": "0.6509 ± 0.0127 and 0.6509"},
      {"measurement": "First-Order k", "setting": "[1]; time in hours", "value": 0.05179},
      {"measurement": "Korsmeyer-Peppas k", "setting": "[1]; time in hours", "value": 0.0578},
      {"measurement": "Korsmeyer-Peppas with Tlag k", "setting": "[1]; time in hours", "value": 0.0947},
      {"measurement": "Korsmeyer-Peppas with Tlag: Tlag", "setting": "[1]; time in hours", "value": 1.440},
      {"measurement": "Zero-Order k", "setting": "[1]; time in hours", "value": 0.02997},
      {"measurement": "solubility at 120 min", "setting": "[2]; Citrate buffer pH 5.5/ACys plus DMSO 10% v/v", "value": 29, "unit": "µg/mL"},
      {"measurement": "solubility at 120 min", "setting": "[2]; Citrate buffer pH 5.5/ACys plus β-CD 2% w/v", "value": 83, "unit": "µg/mL"},
      {"measurement": "solubility at 120 min", "setting": "[2]; Citrate buffer pH 5.5/ACys plus β-CD 3% w/v", "value": 103, "unit": "µg/mL"},
      {"measurement": "solubility enhancement compared to water solubility", "setting": "[2]; in presence of β-CD 2%", "value": 42, "unit": "fold"},
      {"measurement": "Solubility", "setting": "[3]", "value": "0.002 [52] mg/mL"},
      {"measurement": "decrease of absorbance ratio at 360 nm", "setting": "[4]; PBS pH 7.4 + 10% v/v DMSO", "value": 42, "unit": "%"},
      {"measurement": "QRC stability over time", "setting": "[4]; citrate buffer pH 5.5 + 10% v/v DMSO + 0.002% w/v ACys", "value": "improved"},
      {"measurement": "decrease of absorbance ratio at 360 nm", "setting": "[4]; citrate buffer pH 5.5 + 10% v/v DMSO", "value": 25, "unit": "%"},
      {"measurement": "logP", "setting": "[5]", "value": 1.50},
      {"measurement": "Appearance of QRC-liquid lipid mixture", "setting": "[6]; Capryol PGMC", "value": "Opalescent"},
      {"measurement": "Appearance of QRC-liquid lipid mixture", "setting": "[6]; Labrafil M 1944 CS", "value": "Opalescent"},
      {"measurement": "Appearance of QRC-liquid lipid mixture", "setting": "[6]; Labrasol", "value": "Clear"},
      {"measurement": "Appearance of QRC-liquid lipid mixture", "setting": "[6]; Maisine", "value": "Opalescent"},
      {"measurement": "Appearance of QRC-liquid lipid mixture", "setting": "[6]; PEG-18 G/C", "value": "Slightly Opalescent"},
      {"measurement": "Appearance of QRC-liquid lipid mixture", "setting": "[6]; Plurol", "value": "Opalescent"},
      {"measurement": "UV exposure time until Hpp plateau (antioxidant power exhausted)", "setting": "[7]; 25 W or 50 W lamp, irradiation up to 60 min", "value": 25, "unit": "min"},
      {"measurement": "EPR amplitude Hpp normalized to mass", "setting": "[7]; 20 min UV irradiation, 50 W lamp", "value": 1.018, "unit": "u.a."},
      {"measurement": "EPR amplitude Hpp normalized to mass", "setting": "[7]; not irradiated", "value": 0.054, "unit": "u.a."},
      {"measurement": "%RCD compared with BioQ-CPX samples", "setting": "DPPH antioxidant assay; corresponding to QRC content of the nanocomposite samples, after 1 and 2 h", "value": "same values of %RCD and trends"},
      {"measurement": "scavenging activity compared with BioQ-CPX samples", "setting": "DPPH antioxidant assay; within 15 min incubation", "value": "lower"}
    ]}
  ]
}
